Test results taken from article PMC7044277 (Nature Communications, 2020).
Values joined by “and” are separate entries in the source; they are usually repeats but may differ in a detail not shown here. Equal values may be shown once.

Legend:
Type in all cases: cell-based
[1] = target: 320 non-olfactory GPCRs (Homo sapiens, UniProt P25025)
[2] = target: T1, 320 non-olfactory GPCRs (Homo sapiens, UniProt P55085)
T1 construct: expressed in transfected cells; host or cells: HTLA cells

[3] = target: T2, 320 non-olfactory GPCRs (Homo sapiens, UniProt Q86SM8); settings: receptor MRGPRE; replicate values, Fig_4g
T2 construct: expressed in transfected cells; host or cells: HTLA cells

[4] = target: T3, 320 non-olfactory GPCRs (Homo sapiens, UniProt Q8TDS7); settings: receptor MRGPRD; replicate values, Fig_4g
T3 construct: expressed in transfected cells; host or cells: HTLA cells
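Wherever Fold of Basal is given: compound tested at 1 µM final concentration.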
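Wherever GPCRome agonism screen response is given: fold over basal response of each receptor without drug.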

T3 sequence (Q8TDS7 whole entry): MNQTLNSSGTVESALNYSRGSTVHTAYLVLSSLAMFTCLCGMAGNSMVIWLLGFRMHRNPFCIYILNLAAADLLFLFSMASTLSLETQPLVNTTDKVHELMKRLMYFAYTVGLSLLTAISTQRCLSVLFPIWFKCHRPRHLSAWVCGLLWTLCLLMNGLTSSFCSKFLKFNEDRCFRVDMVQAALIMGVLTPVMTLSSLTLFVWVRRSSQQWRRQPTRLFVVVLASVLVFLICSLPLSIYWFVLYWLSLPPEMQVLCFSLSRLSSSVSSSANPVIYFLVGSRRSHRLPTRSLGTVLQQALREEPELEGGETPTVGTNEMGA
T1 sequence (P55085 26-397): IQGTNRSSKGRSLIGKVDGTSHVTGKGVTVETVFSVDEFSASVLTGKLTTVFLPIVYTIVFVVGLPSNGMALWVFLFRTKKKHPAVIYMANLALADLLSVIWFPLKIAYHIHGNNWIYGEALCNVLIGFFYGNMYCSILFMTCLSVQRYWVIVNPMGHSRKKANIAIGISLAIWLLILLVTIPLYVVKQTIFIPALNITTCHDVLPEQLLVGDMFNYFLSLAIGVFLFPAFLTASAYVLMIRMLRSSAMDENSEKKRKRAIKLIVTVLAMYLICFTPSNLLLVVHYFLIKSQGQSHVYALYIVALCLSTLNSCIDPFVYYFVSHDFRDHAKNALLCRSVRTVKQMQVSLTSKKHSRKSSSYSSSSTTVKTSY
Sequence of 320 non-olfactory GPCRs (Homo sapiens, UniProt P25025) (P25025 whole entry): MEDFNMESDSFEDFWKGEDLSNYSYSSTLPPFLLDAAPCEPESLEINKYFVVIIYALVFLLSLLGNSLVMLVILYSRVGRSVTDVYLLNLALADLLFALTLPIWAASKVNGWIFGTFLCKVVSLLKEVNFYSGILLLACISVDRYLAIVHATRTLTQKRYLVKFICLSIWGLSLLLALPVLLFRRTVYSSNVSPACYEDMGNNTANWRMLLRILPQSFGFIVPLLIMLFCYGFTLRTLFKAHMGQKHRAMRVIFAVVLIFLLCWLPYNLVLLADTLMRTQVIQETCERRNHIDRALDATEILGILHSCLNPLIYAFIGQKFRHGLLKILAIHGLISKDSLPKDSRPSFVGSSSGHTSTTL
T2 sequence (Q86SM8 whole entry): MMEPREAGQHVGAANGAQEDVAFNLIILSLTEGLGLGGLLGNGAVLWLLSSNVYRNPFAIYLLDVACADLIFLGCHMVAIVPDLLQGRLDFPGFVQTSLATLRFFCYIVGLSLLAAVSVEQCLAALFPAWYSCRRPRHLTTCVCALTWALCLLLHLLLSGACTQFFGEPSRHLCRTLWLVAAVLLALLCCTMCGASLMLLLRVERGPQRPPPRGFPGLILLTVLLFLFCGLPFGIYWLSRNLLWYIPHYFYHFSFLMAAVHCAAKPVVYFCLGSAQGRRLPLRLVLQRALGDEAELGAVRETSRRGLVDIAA

## CCOc1cccc2cc(C(C)NCC3(O)CCCCC3)oc12 (stereo not shown) [O4LE6]
[1]
  Fold of Basal: 1.166 and 1.131 and 0.9959 and 1.015
[2]
  Fold of Basal: 0.6754 and 1.05 and 1.156 and 0.8918
[3]
  GPCRome agonism screen response: 0.6882 and 1.103 and 0.7685 and 1.012
[4]
  GPCRome agonism screen response: 1.227 and 0.5077 and 1.775 and 0.8477
